The values that follow come from ChEMBL document CHEMBL1201862, “PubChem BioAssay data set” (2004).

Some test systems named below: COLO 205; EKVX; HCT-116; HL-60; HOP-92; IGROV-1; M14; MOLT-4; NCI-H522; NCI/ADR-RES; OVCAR-8; RPMI-8226; RXF 393; SF-268; SF-539; SK-MEL-28; SK-OV-3; SN12C; UACC-62; UO-31.
Holding throughout (assay): NCI anticancer screen, dose series, 48 h

Structures are written as SMILES.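 Values below derive from 48-hour exposures of cells grown in 96-well plates, with endpoints linearly interpolated between the two concentrations bracketing the appropriate inhibition level. GI50: concentration for 50% inhibition of growth.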 Activity calls are given as the source filed them. No stated cut-off is given here; in the data, active = GI50 up to about 1.1 µM and inactive = higher. Starred links: 1 amine or outer side, 2 acyl side, 3 side chain; linkers in the order of their positions; H or OH if unused. Residues, ends and D or L forms follow the SMILES beside them. *: point of attachment. γGlu = O=C(O)[CH](CCC(=O)[*:2])N[*:1]; NHOH = ON*

As to `CCOC(=O)CNC(=O)C(CCC(=O)NO)NC(=O)CCC(N)C(=O)O` (stereo not given) (γGlu-Glu(NHOH)-Gly-OEt; configuration not given here), the GI50 in the assay with COLO 205, in the assay on EKVX, in the assay with HCT-116, with HL-60, in the assay on HOP-92 and with IGROV-1 was > 100 µM (inactive) each time. Also, the GI50 in the assay on M14, in the assay on MOLT-4, in the assay with NCI-H522, with NCI/ADR-RES, with OVCAR-8 and in the assay on RPMI-8226 was > 100 µM (inactive) throughout. Also, the GI50 with RXF 393, in the assay with SF-268, in the assay on SF-539, with SK-MEL-28, in the assay on SK-OV-3 and in the assay with SN12C was > 100 µM (inactive) in each case. The GI50 with UACC-62 and with UO-31 was > 100 µM (inactive) each time.

Turning to `CCOC(=O)NC(=O)c1cn(CCCOC(=O)CCCCCCCCC(=O)OCCCn2cc(C(=O)NC(=O)OCC)c(=O)n(C)c2=O)c(=O)n(C)c1=O`, the GI50 was > 100 µM (inactive) in the assay with COLO 205; > 100 µM (inactive) in the assay on EKVX; > 100 µM (inactive) in the assay with HCT-116; > 77.8 µM (inactive) with HL-60; > 59 µM (inactive) in the assay with HOP-92; > 100 µM (inactive) in the assay on IGROV-1. In addition, the GI50 in the assay on M14 is > 100 µM (inactive); with MOLT-4 it was > 100 µM (inactive); with NCI-H522, > 100 µM (inactive); in the assay on NCI/ADR-RES it was > 100 µM (inactive); in the assay on OVCAR-8, > 79.4 µM (inactive); in the assay on RPMI-8226, > 100 µM (inactive). Moreover, the GI50 in the assay with RXF 393 was > 82.8 µM (inactive); in the assay with SF-268, > 100 µM (inactive); in the assay with SF-539 it was > 68.7 µM (inactive); with SK-MEL-28 it was > 100 µM (inactive); in the assay with SK-OV-3, > 100 µM (inactive); in the assay on SN12C it was > 100 µM (inactive). Further, the GI50 in the assay with UACC-62 and in the assay on UO-31 was > 100 µM (inactive) throughout.

Consider `O=C1NC(N2CCCCC2)=N/C1=C\c1cccs1`, for which the GI50 in the assay with COLO 205, with EKVX, in the assay on HCT-116, in the assay on HL-60, in the assay on HOP-92 and with IGROV-1 was > 100 µM (inactive) each time. For the same compound, the GI50 with M14, with MOLT-4, in the assay on NCI-H522, in the assay on NCI/ADR-RES, in the assay on OVCAR-8 and in the assay on RPMI-8226 was > 100 µM (inactive) throughout. The GI50 in the assay with RXF 393, in the assay on SF-268, with SF-539, in the assay on SK-MEL-28, in the assay with SK-OV-3 and with SN12C was > 100 µM (inactive) each time. In addition, the GI50 with UACC-62 and in the assay on UO-31 was > 100 µM (inactive) in each case.

On to `Cc1cc(C)nc(NS(=O)(=O)c2ccc(NN=c3c4ccccc4n(C)c4ccccc34)cc2)n1`, for which the GI50 in the assay with COLO 205 is 29.7 µM (inactive); in the assay with EKVX, 26.4 µM (inactive); with HCT-116 it was 25.7 µM (inactive); in the assay on HL-60 it was 28.9 µM (inactive); with HOP-92 it was 15.6 µM (inactive); in the assay with IGROV-1, 45.8 µM (inactive). Besides, the GI50 is 35.5 µM (inactive) in the assay with M14; 15.5 µM (inactive) in the assay with MOLT-4; 13.8 µM (inactive) in the assay on NCI-H522; 38.2 µM (inactive) in the assay on NCI/ADR-RES; 30.1 µM (inactive) with OVCAR-8; 27.5 µM (inactive) in the assay on RPMI-8226. In addition, the GI50 in the assay on RXF 393 is 7.62 µM (inactive); in the assay with SF-268 it was 25.6 µM (inactive); in the assay on SF-539, 44.4 µM (inactive); with SK-MEL-28 it was 37 µM (inactive); in the assay with SK-OV-3 it was 27.2 µM (inactive); with SN12C it was 42.8 µM (inactive). For the same compound, the GI50 with UACC-62 is 20.8 µM (inactive); in the assay on UO-31, 16.6 µM (inactive).

With `O=C(NNC(=O)c1ccccc1S)c1ccccc1S` [BIS(THIOSALICYL)HYDRAZIDE], the GI50 in the assay with COLO 205 is 11.1 µM (inactive); in the assay on EKVX, 8.34 µM (inactive); in the assay with HCT-116 it was 6.79 µM (inactive); with HL-60, 8.79 µM (inactive); in the assay on HOP-92 it was > 25 µM (inactive); in the assay with IGROV-1, 7.29 µM (inactive). Besides, the GI50 in the assay with M14 was 10.3 µM (inactive); with MOLT-4, 7.11 µM (inactive); in the assay on NCI-H522, 0.0154 µM (active); in the assay on NCI/ADR-RES, 11.3 µM (inactive); in the assay on OVCAR-8 it was 12 µM (inactive); in the assay with RPMI-8226 it was 18.4 µM (inactive). Moreover, the GI50 is 22.6 µM (inactive) in the assay with RXF 393; 11.2 µM (inactive) in the assay with SF-268; 11.7 µM (inactive) in the assay with SF-539; > 25 µM (inactive) in the assay on SK-MEL-28; > 25 µM (inactive) in the assay with SK-OV-3; 13.6 µM (inactive) in the assay with SN12C. The values for the GI50 in the assay on UACC-62 and with UO-31 were 9.27 µM (inactive) and 8.43 µM (inactive), respectively.

For `CC(=O)NC1C(OCc2ccccc2)OC(CO)C(O)C1OC(C)C(=O)NC(C(=O)NC(CCC(=O)NCCCCNc1c2ccccc2nc2cccc([N+](=O)[O-])c12)C(N)=O)C(C)C` (stereo not given), the GI50 was 1.05 µM (active) in the assay with COLO 205; 2.65 µM (inactive) in the assay with EKVX; 0.975 µM (active) with HCT-116; 1.65 µM (inactive) with HL-60; 1.28 µM (inactive) with HOP-92; 2.05 µM (inactive) in the assay on IGROV-1. For the same compound, the GI50 is 1.62 µM (inactive) in the assay on M14; 0.515 µM (active) in the assay with MOLT-4; 0.186 µM (active) with NCI-H522; 49.2 µM (inactive) in the assay with NCI/ADR-RES; 1.91 µM (inactive) in the assay with OVCAR-8; 0.76 µM (active) in the assay on RPMI-8226. Further, the GI50 is 1.56 µM (inactive) in the assay with RXF 393; 2.99 µM (inactive) in the assay on SF-268; 3.3 µM (inactive) in the assay with SF-539; 2.67 µM (inactive) with SK-MEL-28; 8.73 µM (inactive) in the assay with SK-OV-3; 1.71 µM (inactive) with SN12C. Moreover, the GI50 was 2.09 µM (inactive) in the assay on UACC-62 and 2.89 µM (inactive) in the assay on UO-31.

Take `COc1cccc(-c2c(-c3ccccc3)[nH]c(C)c2C(=O)ONC(=O)c2ccccc2)c1`: the GI50 is 13.7 µM (inactive) with COLO 205; 6.78 µM (inactive) in the assay on EKVX; 3.98 µM (inactive) with HCT-116; 1.93 µM (inactive) in the assay with HL-60; 1.83 µM (inactive) in the assay with HOP-92; 1.66 µM (inactive) in the assay with IGROV-1. The GI50 is 5.7 µM (inactive) in the assay with M14; 4.24 µM (inactive) in the assay with MOLT-4; 3.78 µM (inactive) in the assay on NCI-H522; 8.93 µM (inactive) with NCI/ADR-RES; 5.18 µM (inactive) in the assay on OVCAR-8; 6.28 µM (inactive) in the assay on RPMI-8226. Moreover, the GI50 is 4.35 µM (inactive) with RXF 393; 7.57 µM (inactive) in the assay with SF-268; 6.76 µM (inactive) in the assay on SF-539; 14.7 µM (inactive) in the assay with SK-MEL-28; 14.2 µM (inactive) in the assay on SK-OV-3; 3.4 µM (inactive) with SN12C. Further, the figures for the GI50 in the assay with UACC-62 and with UO-31 were 13.8 µM (inactive) and 0.128 µM (active), respectively.

For `COc1ccc(-c2cc(-c3ccco3)c(C#N)c(=S)n2C2OC(COC(C)=O)C(OC(C)=O)C(OC(C)=O)C2OC(C)=O)cc1` (stereo not given), the GI50 was 4.36 µM (inactive) in the assay on COLO 205; 13.5 µM (inactive) in the assay on EKVX; 6.79 µM (inactive) in the assay with HCT-116; 3.98 µM (inactive) in the assay on HL-60; 4.02 µM (inactive) in the assay with HOP-92; 13.3 µM (inactive) in the assay with IGROV-1. Besides, the GI50 in the assay with M14 is 5.27 µM (inactive); in the assay with MOLT-4 it was 12.3 µM (inactive); in the assay on NCI-H522 it was 4.56 µM (inactive); in the assay with NCI/ADR-RES, 12.7 µM (inactive); in the assay with OVCAR-8 it was 3.78 µM (inactive); in the assay with RPMI-8226 it was 2.96 µM (inactive). In addition, the GI50 in the assay with RXF 393 was 9.53 µM (inactive); in the assay on SF-268, 8.45 µM (inactive); in the assay on SF-539 it was 1.85 µM (inactive); in the assay on SK-MEL-28, 3.3 µM (inactive); with SK-OV-3, 13.8 µM (inactive); in the assay with SN12C it was 10.1 µM (inactive). Also, the GI50 was 3.72 µM (inactive) in the assay with UACC-62 and 13.7 µM (inactive) in the assay on UO-31.

For the compound `CC(=O)N[C@@H](Cc1ccc(O)cn1)C(=O)NCc1ccc2c(c1)OCO2`, the GI50 in the assay on COLO 205, with EKVX, in the assay with HCT-116, in the assay with HL-60, in the assay with HOP-92 and in the assay on IGROV-1 was > 100 µM (inactive) each time. In addition, the GI50 with M14, with MOLT-4, in the assay with NCI-H522, in the assay on NCI/ADR-RES, in the assay with OVCAR-8 and in the assay on RPMI-8226 was > 100 µM (inactive) throughout. The GI50 in the assay with RXF 393, in the assay on SF-268, with SF-539, in the assay on SK-MEL-28, with SK-OV-3 and with SN12C was > 100 µM (inactive) throughout. For the same compound, the GI50 in the assay on UACC-62 and in the assay on UO-31 was > 100 µM (inactive) in each case.

For the compound `Nc1nc(-c2cccnc2)cc(-c2cc(-c3cccnc3)nc(N)n2)n1`, the GI50 in the assay on COLO 205, in the assay with EKVX, with HCT-116, in the assay on HL-60, in the assay with HOP-92 and with IGROV-1 was > 100 µM (inactive) each time. The GI50 with M14, in the assay with MOLT-4, in the assay on NCI-H522, in the assay with NCI/ADR-RES, in the assay on OVCAR-8 and in the assay with RPMI-8226 was > 100 µM (inactive) throughout. In addition, the GI50 with RXF 393, in the assay on SF-268, in the assay on SF-539, in the assay with SK-MEL-28, with SK-OV-3 and in the assay with SN12C was > 100 µM (inactive) throughout. In addition, the GI50 in the assay with UACC-62 and in the assay on UO-31 was > 100 µM (inactive) throughout.
